From the Deep4Chem optical property database

Assay: solvent given as SMILES

CCc1c(C)[nH]c(C2=[N+]3C(=Cc4c(C)c(CC)c(C)n4[B-]3(F)F)c3ccccc32)c1C
emission maximum (in C1CCOC1): 644 nm | emission maximum (in CC#N): 643 nm | emission maximum (in CCCCCC): 641 nm | emission maximum (in CO): 642 nm | emission maximum (in Cc1ccccc1): 651 nm | emission maximum (in ClCCl): 650 nm

CCC1(CC)c2cc(-c3ccc(-c4ccc5c(c4)C(CC)(CC)c4cc(C(C)(C)C)ccc4-5)cc3)ccc2-c2ccc(C(C)(C)C)cc21
emission maximum (in CO): 383.9 nm

Nc1ccc(C#Cc2ccc3ccc4ccc(C#Cc5ccc(NS(=O)(=O)c6ccc([N+](=O)[O-])cc6[N+](=O)[O-])cc5)c5ccc2c3c45)cc1
emission maximum (in CO): 552 nm

COc1cc(OC)c2ccc(=O)oc2c1
emission maximum (in CC(C)O): 417 nm | emission maximum (in CCO): 425 nm | emission maximum (in CCOCC): 390 nm | emission maximum (in CO): 432 nm | emission maximum (in O): 450 nm

Cc1nc2cccc(-c3nc4ccccc4s3)c2c(=O)[nH]1
emission maximum (in CN(C)C=O): 416 nm

CCCN1/C(=C/C=C(/C=C/C2=[N+](CCC)c3ccccc3C2(C)C)c2ccc3ccccc3n2)C(C)(C)c2ccccc21
emission maximum (in CO): 652 nm | emission maximum (in CS(C)=O): 664 nm | emission maximum (in O): 653 nm

COC(=O)C(Cc1ccc2oc(-c3ccncc3)nc2c1)NC(=O)OC(C)(C)C (configuration not stated)
emission maximum (in CC1CCCCC1): 356.74 nm | emission maximum (in CC#N): 374.95 nm | emission maximum (in CO): 384.74 nm

CC(C)(C)c1ccc(-c2c(-c3cccc(N(c4ccccc4)c4ccccc4)c3)c(C#N)c(-c3cccc(N(c4ccccc4)c4ccccc4)c3)c(-c3ccc(C(C)(C)C)cc3)c2-c2ccc(C(C)(C)C)cc2)cc1
emission maximum (in C1CCOC1): 448 nm

CCOc1ccc(/C=C/C=C/C=C/c2ccc([N+](=O)[O-])cc2)cc1
emission maximum (in CC1CCCCC1): 488 nm | emission maximum (in CC#N): 740 nm | emission maximum (in Cc1ccccc1): 541 nm | emission maximum (in ClCCl): 694 nm

CN(C)c1cccc2c1C(=O)c1ccccc1-2
emission maximum (in C1CCCCC1): 498 nm | emission maximum (in CC#N): 534 nm | emission maximum (in CCO): 541 nm | emission maximum (in c1ccccc1): 520 nm

Nc1ncnc2c1c(-c1ccc3ccccc3c1)nn2[C@H]1C[C@H](O)[C@@H](CO)O1
emission maximum (in C1COCCO1): 359 nm | emission maximum (in CC#N): 360 nm | emission maximum (in CC(C)O): 363 nm | emission maximum (in CCO): 364 nm | emission maximum (in CCOC(C)=O): 358 nm | emission maximum (in CN(C)C=O): 361 nm | emission maximum (in CO): 362 nm | emission maximum (in CS(C)=O): 363 nm | emission maximum (in OCC(O)CO): 372 nm | emission maximum (in OCCO): 365 nm

Cc1cccc(C2=CC3=C(c4c(C)cc(C)cc4C)c4cc(-c5cccc(C)c5)c(-c5cccc(C)c5)n4[B-](F)(F)[N+]3=C2c2cccc(C)c2)c1
emission maximum (in C1CCCCC1): 625 nm | emission maximum (in C1CCOC1): 626 nm | emission maximum (in CC#N): 620 nm | emission maximum (in Cc1ccccc1): 628 nm | emission maximum (in ClCCl): 627 nm

CCCCCCCCC1(CCCCCCCC)c2cc3c(cc2-c2sc(-c4ccc(/C=C5\SC(=S)N(CC)C5=O)c5nsnc45)cc21)C(CCCCCCCC)(CCCCCCCC)c1cc(-c2ccc(/C=C4\SC(=S)N(CC)C4=O)c4nsnc24)sc1-3
emission maximum (in ClC(Cl)Cl): 728 nm

CN(C)c1ccc(-c2nc3c(c4c2-c2ccc(C#N)cc2CC4)-c2ccc(C#N)cc2CC3)cc1
emission maximum (in C1CCOC1): 500 nm | emission maximum (in CC#N): 505 nm | emission maximum (in CCCCCC): 444 nm | emission maximum (in CCOC(C)=O): 489 nm | emission maximum (in CO): 489 nm | emission maximum (in CS(C)=O): 516 nm | emission maximum (in Cc1ccccc1): 469 nm | emission maximum (in ClCCl): 482 nm

c1cnc(-c2c3ccccc3c(-c3ncccn3)c3ccccc23)nc1
emission maximum (in CCO): 440 nm | emission maximum (in ClCCl): 439 nm

CCCCCCc1sc(CCCCCC)c2c3ccsc3c3sccc3c12
emission maximum (in ClC(Cl)Cl): 425 nm

c1ccc(-c2cc(-c3ccccc3)[o+]c(-c3ccccc3)c2)cc1
emission maximum (in CC#N): 465 nm | emission maximum (in ClCCCl): 463 nm

c1cc2c3c(c1)-c1cccc4cccc(c14)B3c1cccc3cccc-2c13
emission maximum (in Cc1ccccc1): 491 nm

Cc1ccc(-c2cc(-c3ccc(N(C)C)cc3)c3c(N)nc(N4CCCC4)c(C#N)c3n2)cc1
emission maximum (in CC#N): 514 nm | emission maximum (in CC(C)=O): 511 nm | emission maximum (in CC(C)O): 506 nm | emission maximum (in CO): 517 nm | emission maximum (in ClC(Cl)Cl): 496 nm | emission maximum (in ClCCl): 503 nm | emission maximum (in c1ccccc1): 500 nm

Cc1ccc(C2=C(c3ccc(C)cc3)c3cccc4c3c(cc3nc5ccccc5nc34)O2)cc1
emission maximum (in ClCCl): 559 nm

Clc1ccc(/C=C/c2ccncn2)cc1
emission maximum (in ClCCl): 411 nm

COC(=O)C(NC(=O)OC(C)(C)C)c1ccc2oc(-c3ccc(O)cc3O)nc2c1 (configuration not stated)
emission maximum (in CC1CCCCC1): 470 nm | emission maximum (in CC#N): 380 nm | emission maximum (in CO): 365 nm

COCCOCCOCN1C(=O)c2ccc3c(-c4ccccc4)c4c5ccc6c7c(ccc(c(-c8ccccc8)c4c4ccc(c2c34)C1=O)c75)C(=O)N(COCCOCCOC)C6=O
emission maximum (in ClCCl): 695 nm

COc1ccc(C2=[N+]3C(=Nc4c(-c5ccccc5)c(Br)c(-c5ccc(OC)cc5)n4[B-]3(F)F)C(c3ccccc3)=C2Br)cc1
emission maximum (in ClC(Cl)Cl): 714 nm | emission maximum (in ClCCl): 714 nm

N#Cc1ccc(C2=Cc3ccccc3P2(=O)c2ccccc2)cc1 (configuration not stated)
emission maximum (in ClCCl): 426 nm

c1ccc(-c2nc(-c3ccc(-c4ccc(-c5ccc(-c6nc(-c7ccccc7)c(-c7ccccc7)o6)cc5)cc4)cc3)oc2-c2ccccc2)cc1
emission maximum (in C1COCCO1): 426 nm

Cc1cc(C)c(B(c2cc(-c3ccc(C(C)(C)C)cc3)sc2-c2sc(-c3ccc(C(C)(C)C)cc3)cc2P(=O)(c2ccccc2)c2ccccc2)c2c(C)cc(C)cc2C)c(C)c1
emission maximum (in CO): 572 nm

O=C1c2ccccc2C2=Cc3ccccc3B(O)N12
emission maximum (in CC#N): 432 nm | emission maximum (in CO): 430 nm | emission maximum (in CS(C)=O): 438 nm | emission maximum (in ClC(Cl)Cl): 437 nm

Cc1cc(C)c([B-]2(c3c(C)cc(C)cc3C)[O+]=P(c3ccccc3)(c3ccccc3)c3ccsc3-c3sccc32)c(C)c1
emission maximum (in C1CCOC1): 429 nm

CCCCN(c1ccccc1)c1ccc2c(c1)C(CC)(CC)c1cc(/C=C/c3ccc(/C=C(\C#N)C(=O)O)s3)ccc1-2
emission maximum (in C1CCOC1): 622 nm | emission maximum (in C1COCCO1): 621 nm | emission maximum (in CC#N): 518 nm | emission maximum (in CC(C)=O): 576 nm | emission maximum (in CCOC(C)=O): 590 nm | emission maximum (in CN(C)C=O): 605 nm | emission maximum (in CS(C)=O): 520 nm | emission maximum (in ClCCl): 595 nm

Cc1cc2ccccc2c2c1c1ccccc1n2-c1ccc(C#N)cc1
emission maximum (in ClCCl): 470 nm

N#Cc1ccc(-c2pc3ccccc3s2)cc1 (configuration not stated)
emission maximum (in CC#N): 433 nm

O=c1oc2ccc3ccccc3c2nc1-c1ccc(Cl)cc1
emission maximum (in c1ccccc1): 465 nm

CN(C)c1ccc2[c](c1)[Ge]([CH3])([CH3])[C]1=CC(=[N+](C)C)C=CC1=C2
emission maximum (in O): 634 nm

O=c1c2cc(S(=O)(=O)Cl)ccc2[nH]c2ccc(S(=O)(=O)Cl)cc12
emission maximum (in CS(C)=O): 417 nm

CC1=C(Cc2ccccc2)C(C)=[N+]2C1=C(C)c1c(C)c(-c3csc(N4CCOCC4)n3)c(C)n1[B-]2(F)F
emission maximum (in C1CCOC1): 620 nm | emission maximum (in C1COCCO1): 602 nm | emission maximum (in CC#N): 537 nm | emission maximum (in CC(C)O): 543 nm | emission maximum (in CCO): 538 nm | emission maximum (in CCOC(C)=O): 545 nm | emission maximum (in CN(C)C=O): 537 nm | emission maximum (in CO): 539 nm | emission maximum (in CS(C)=O): 548 nm | emission maximum (in Cc1ccccc1): 603 nm | emission maximum (in ClC(Cl)Cl): 607 nm | emission maximum (in ClCCl): 535 nm

CCCCCCOc1ccc(C#Cc2ccc(-c3ccc(-c4ccc(C#Cc5ccc(OCCCCCC)c(OCCCCCC)c5)s4)c4nsnc34)s2)cc1OCCCCCC
emission maximum (in C1CCCCC1): 600 nm | emission maximum (in CCOC(C)=O): 635 nm | emission maximum (in CN(C)C=O): 666 nm | emission maximum (in COc1ccccc1): 636 nm | emission maximum (in Cc1ccccc1): 620 nm | emission maximum (in ClC(Cl)Cl): 648 nm | emission maximum (in ClCCCl): 650 nm | emission maximum (in ClCCl): 649 nm

CCC1=C(CC)c2cccc3c2c(cc2nc4ccccc4nc23)O1
emission maximum (in ClCCl): 563 nm

COC(=O)C1=C(C(=O)OC)C2(c3ccccc3-c3c(Br)cc(Br)cc32)C2(/C=C/c3ccccc3)c3cc(OC)c(OC)cc3CCN12 (configuration not stated)
emission maximum (in ClCCl): 491 nm

COc1ccc(/C=C(\C#N)c2nc(-c3ccc(Cl)cc3)cs2)cc1
emission maximum (in CC#N): 472 nm

CCCCC1(c2ccccc2)Nc2c(-c3ccc(N(C)c4ccccc4)cc3)ccc(-c3ccc(N(C)c4ccccc4)cc3)c2N=C1c1ccccc1 (configuration not stated)
emission maximum (in C1CCOC1): 580 nm | emission maximum (in CC#N): 602 nm | emission maximum (in CCCCCC): 553 nm | emission maximum (in CN(C)C=O): 603 nm | emission maximum (in Cc1ccccc1): 573 nm | emission maximum (in ClC(Cl)Cl): 589 nm

CC(NC(=O)OC(C)(C)C)C(=O)OCc1ccc2c3cccc4cccc(c5cccc1c52)c43 (configuration not stated)
emission maximum (in CCO): 443 nm

O=C1NC(c2ccccc2)=C/C1=C\c1ccccc1
emission maximum (in C1COCCO1): 539 nm

O=S(=O)([O-])c1cccc2c(O)cccc12
emission maximum (in O): 426 nm

CC(C)c1cccc(C(C)C)c1N1C(=O)c2cccc3c(Oc4ccc(C(C)(C)C)cc4)ccc(c23)C1=O
emission maximum (in ClCCl): 434 nm

N#Cc1ccc(N)c(/C=C/C(F)(F)F)c1
emission maximum (in C1CCOC1): 409 nm

C1=Cc2ccc3ccccc3c2NB1c1ccccc1
emission maximum (in C1CCCCC1): 383 nm

CCN(CC)c1ccc2c(c1)oc(=O)c1cnc3c(c(C)nn3-c3ccccc3)c12
emission maximum (in ClCCl): 445 nm

O=C1O[B-]2(OC1=O)OC(c1ccccc1)=CC(c1ccc3ccccc3c1)=[O+]2
emission maximum (in CC#N): 555 nm | emission maximum (in ClC(Cl)(Cl)Cl): 451 nm

CC(=O)O[B-]1(OC(C)=O)OC(/C=C/c2ccc(C)cc2)=CC(/C=C/c2ccc(C)cc2)=[O+]1
emission maximum (in C1CCOC1): 484 nm | emission maximum (in CC#N): 493 nm | emission maximum (in CC(C)=O): 489 nm | emission maximum (in CS(C)=O): 499 nm | emission maximum (in Cc1ccccc1): 481 nm | emission maximum (in ClC(Cl)Cl): 491 nm | emission maximum (in ClCCl): 492 nm

COc1ccccc1-c1nc2c3ccccc3c3ccccc3c2n1-c1ccc(C)cc1
emission maximum (in Cc1ccccc1): 371 nm

Cc1ccccc1N1c2c(sc3ccccc23)Sc2sc3ccccc3c21
emission maximum (in ClCCl): 583 nm

c1ccc(-c2nc(-c3ccccc3)nc(-c3cc(-n4c5ccccc5c5ccccc54)c(-n4c5ccccc5c5ncccc54)c(-n4c5ccccc5c5ccccc54)c3)n2)cc1
emission maximum (in C1CCOC1): 481.97 nm | emission maximum (in CC#N): 535.03 nm | emission maximum (in CCCCCC): 422.11 nm | emission maximum (in Cc1ccccc1): 447.02 nm | emission maximum (in ClCCl): 507.14 nm
